Data reported in US9855265B2, “Methods for treating cancer with TrkA receptor tyrosine kinase antagonists” (VM Oncology LLC, priority 2014, dated 2018).

Legend:
[1] = test system: PANC-1 subcutaneous human pancreatic cancer xenografts; test: PANC-1 Subcutaneous Human Pancreatic Cancer Xenograft Mouse Model
Experimental: Temperature: 22±3° C. Humidity: 50±20%. Light cycle: 12 hours light and 12 hours dark. Cages: Polycarbonate cages of 300 mm×180 mm×150 mm embedded with the soft wood material were used. The bedding was changed twice a week. Diet: Animals had free access to a certified commercial laboratory diet. Concentrations of contaminants in the diet are routinely analyzed by the manufacturers to ensure the contaminants are below their allowable maximum and thus would not affect the tumor growth.
Water: Animals had free access to sterile drinking water. Cage identification: The identification labels for each cage contained the following information: number of animals, sex, strain, date received, treatment, group number and the starting date of the treatment. Briefly, PANC-1 cell line was originally purchased from the ATCC (CRL-1469) and the PANC-1 primary cell line was derived from the PANC-1 subcutaneously xenograft tumors. The PANC-1 primary cells were maintained in vitro as monolayer culture in DMEM medium supplemented with 10% heat inactivated fetal bovine serum, 100 U/ml penicillin and 100 μg/ml streptomycin and L-glutamine (2 mM) at 37° C. in an atmosphere of 5% CO2 air. The cells growing in exponential phase were harvested and counted for tumor inoculation.
Tumor Cell Inoculation and Randomization. Each animal was inoculated subcutaneously on the right flank with the PANC-1 primary tumor cells (5×10^6/animal) in 0.1 mL of PBS. Tumor development was allowed undisrupted until mean tumor volume reached approximately 85 mm^3. Animals were then randomized into 6 groups, with each group consisting of 8 animals. The test articles were administered to the tumor-bearing animals according to predetermined regimens. […] At the time of routine monitoring, the animals were checked for any effects of tumor growth on normal behavior such as mobility, food and water consumption (by looking only), body weight (BW) gain/loss (BW was measured twice weekly), eye/hair matting and any other abnormal effect. Death and observed clinical signs were recorded on the basis of the numbers of animals within each subset.
Tumor Measurement and the Endpoints: The major endpoint was to evaluate if the tumor growth could be inhibited. Tumor measurement was conducted twice weekly with a caliper and the tumor volume (mm3) is estimated using the formula: TV=a×b^2/2, where a and b are long and short diameters of a tumor, respectively. The tumor sizes were then used for T/C value and TGI (tumor growth inhibition), which are indicators of anti-tumor effectiveness. The T/C value (in percent) is an indication of antitumor effect. T and C are the mean volumes of the treated and control groups, respectively, on a given day. BW change, expressed as %, is calculated using the following formula: BW change (%)=(BW_DayX/BW_Day0)×100, where BW_DayX is BW on a given day, and BW_Day0 was BW on Day 0 (tumor inoculation).
Tumor Sample Collection: Two tumor samples from Group 1, 2 and 3, respectively; six tumor samples from Group 4; five tumor samples from Group 5 and 6, respectively, were snap frozen in liquid nitrogen and kept at −80° C. Total 22 tumor samples were collected.
Statistical Analyses: A one-way ANOVA was performed to compare tumor volumes among groups. All data were analyzed using the SPSS 17.0 software; p<0.05 was considered statistically significant.

[2] = test system: CCI rats, mechanical allodynia; conditions: single oral dose
Experimental: Chronic Constriction Injury (CCI) Model of Neuropathic Pain in Rats. […] Chronic constriction injury of the sciatic nerve was produced by tying four loose ligatures around the left sciatic nerve according to the method of Bennett and Xie. […] Calibrated von Frey filaments were used to determine the lowest mechanical (tactile) threshold required to evoke a brisk paw withdrawal reflex in the rat hindpaws. Rats were allowed to acclimatize in wire mesh cages for 15-20 min prior to von Frey testing. Assessment of paw withdrawal thresholds (PWTs) using von Frey filaments was undertaken prior to CCI-surgery (pre-surgery baseline on day 0). Before the drug dosing on day 14, the pre-dose baseline was recorded for each rat. […] Drug-naïve CCI-rats (n=4-6 per group) were used. The oral vehicle was 0.5% CMC-Na/0.1% Tween 80 in distilled water. The positive control gabapentin was dissolved in the vehicle and orally given at 100 mg/kg (by oral gavage). Test compound was suspended in the vehicle and orally given at 50 mg/kg and 100 mg/kg.

[3] = test system: carrageenan-induced pain in rats; test: Carrageenan Pain Model; type: in vivo, Sprague-Dawley rats; conditions: carrageenan rat model, 30 mg/kg, p.o.
Experimental: Carrageenan Pain Model The carrageenan model is a fast, reliable model used to assess the ability of analgesics to block inflammatory pain. The analgesic effects of test article combinations on pain generation are assayed using the carrageenan-induced pain model in rats. Adult male Sprague-Dawley rats are administered study drugs orally (vehicle, compounds of present disclosure) once daily for 2 days (day −2 and day −1) and 30 minutes prior to the carrageenan injection on day 0 (time=0). For the carrageenan injection, animals are lightly anesthetized and 0.1 ml of 2% carrageenan is injected into the plantar surface of the right hind paw. The positive control indomethacin (30 mg/kg, p.o.) is administered orally immediately before the carrageenan injection. Paw volumes (right and left) are measured using a Plethysmometer before drug administration on day −2 and serve as a baseline measurement. The paw volumes are measured again two hours post carrageenan injection. The degree of mechanical allodynia is measured by a blinded observer using Von Frey filaments applied to the plantar surface of the hind paws in an increasing numerical order. Each filament increases the force applied on the paw. The filaments are applied until animal paw withdrawal is achieved. […] Results are expressed as mean change from baseline across five timepoints post carrageenan injection.

Nc1ccn([C@@H]2O[C@H](CO)[C@@H](O)C2(F)F)c(=O)n1 [Gemcitabine, gemcitabine]
TGI (%, D18) ([1]; gemcitabine 10 mg/kg (alone or with Compound-12, see label)): 3% | TGI (%, D18) ([1]; gemcitabine 20 mg/kg (alone or with Compound-12, see label)): 48% | Tumor volume (Mean ± SEM) ([1]; Day 7, gemcitabine 10 mg/kg (alone or with Compound-12, see label)): 83 ± 4 mm^3 | Tumor volume (Mean ± SEM) ([1]; Day 7, gemcitabine 20 mg/kg (alone or with Compound-12, see label)): 83 ± 3 mm^3 | Tumor volume (Mean ± SEM) ([1]; Day 11, gemcitabine 10 mg/kg (alone or with Compound-12, see label)): 142 ± 12 mm^3 | Tumor volume (Mean ± SEM) ([1]; Day 11, gemcitabine 20 mg/kg (alone or with Compound-12, see label)): 109 ± 8 mm^3 | Tumor volume (Mean ± SEM) ([1]; Day 14, gemcitabine 20 mg/kg (alone or with Compound-12, see label)): 138 ± 9 mm^3 | Tumor volume (Mean ± SEM) ([1]; Day 18, gemcitabine 10 mg/kg (alone or with Compound-12, see label)): 346 ± 21 mm^3 | Tumor volume (Mean ± SEM) ([1]; Day 19, gemcitabine 10 mg/kg (alone or with Compound-12, see label)): 374 ± 19 mm^3 | Tumor volume (Mean ± SEM) ([1]; Day 19, gemcitabine 20 mg/kg (alone or with Compound-12, see label)): 216 ± 18 mm^3

NCC1(CC(=O)O)CCCCC1 [gabapentin, reference compound]
side effects observed in dosed CCI-rats [2]: drowsiness or motor incoordination

COc1ccc2c(c1)c(CC(=O)O)c(C)n2C(=O)c1ccc(Cl)cc1 [indomethacin, reference compound]
analgesic effect [3]: about 100%
